Measurements from the supplement of paper PMC10307832.

Assays:
Experiment in all cases: relative viability (nuclei count vs DMSO), 5 days (fraction); higher = more cells survive
Bromopyruvate + OSI-027 = compound: C(C(=O)C(=O)O)Br [Bromopyruvate] + COc1cccc2cc(-c3nc([C@H]4CC[C@H](C(=O)O)CC4)n4ncnc(N)c34)[nH]c12 [OSI-027] (partner 0.5 µM)
Method in brief: (§1)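 A single step with final 0.05% Triton X-100, 1% formaldehyde and 1 ug/ml Hoechst fixed the cells and stained nuclei 5 days after treatment. Lung cancer cell lines in 1536-well plates had been treated by pin tool the day after seeding with one drug alone or a fixed anchor-drug dose plus five library-drug doses (not always all listed) in √10 steps, and nuclei were counted on 4× images. Relative viability is the ratio of nuclei in treated wells to nuclei in vehicle wells, taken as the median of duplicate plates.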

Bicalutamide + Dasatinib = compound: CC(O)(CS(=O)(=O)c1ccc(F)cc1)C(=O)Nc1ccc(C#N)c(C(F)(F)F)c1 [Bicalutamide] + Cc1nc(Nc2ncc(C(=O)Nc3c(C)cccc3Cl)s2)cc(N2CCN(CCO)CC2)n1 [Dasatinib] (partner 0.075 µM)
Method in brief: as §1

[1] = compound: C(C(=O)C(=O)O)Br [Bromopyruvate] + CS(=O)(=O)N1CCN(Cc2cc3nc(-c4cccc5[nH]ncc45)nc(N4CCOCC4)c3s2)CC1 [Pictilisib] (partner 1 µM)
Method in brief: as §1

Bicalutamide + Lapatinib = compound: CC(O)(CS(=O)(=O)c1ccc(F)cc1)C(=O)Nc1ccc(C#N)c(C(F)(F)F)c1 [Bicalutamide] + CS(=O)(=O)CCNCc1ccc(-c2ccc3ncnc(Nc4ccc(OCc5cccc(F)c5)c(Cl)c4)c3c2)o1 [Lapatinib] (partner 2 µM)
Method in brief: as §1

Cell Line	relative viability (Bromopyruvate + OSI-027; first compound 1 µM)	relative viability (Bromopyruvate + OSI-027; first compound 3.162 µM)	relative viability (Bromopyruvate + OSI-027; first compound 10 µM)	relative viability (Bromopyruvate + OSI-027; first compound 31.62 µM)	relative viability (Bromopyruvate + OSI-027; first compound 100 µM)	relative viability (Bicalutamide + Dasatinib; first compound 0.08 µM)	relative viability (Bicalutamide + Dasatinib; first compound 0.253 µM)	relative viability (Bicalutamide + Dasatinib; first compound 0.8 µM)	relative viability (Bicalutamide + Dasatinib; first compound 2.53 µM)	relative viability ([1]; first compound 1 µM)	relative viability ([1]; first compound 3.162 µM)	relative viability ([1]; first compound 10 µM)	relative viability ([1]; first compound 31.62 µM)	relative viability ([1]; first compound 100 µM)	relative viability (Bicalutamide + Lapatinib; first compound 0.08 µM)	relative viability (Bicalutamide + Lapatinib; first compound 0.253 µM)	relative viability (Bicalutamide + Lapatinib; first compound 0.8 µM)	relative viability (Bicalutamide + Lapatinib; first compound 2.53 µM)
NCI-H522	0.74	0.715	0.684	0.718	0.706	0.815	0.722	0.901	0.87	–	–	–	–	–	–	–	–	–
HCC-15	0.711	0.779	0.781	0.715	0.654	0.666	0.568	0.653	0.609	0.719	0.719	0.808	0.732	0.7	0.797	0.813	0.966	0.875
A-427	0.562	0.466	0.418	0.42	0.422	0.643	0.631	0.791	0.607	0.678	0.809	0.483	0.746	0.718	0.945	1.08	1.19	1.1
NCI-H23	0.605	0.695	0.612	0.71	0.661	0.789	0.67	1.07	0.802	0.448	0.535	0.433	0.502	0.409	1.07	0.987	1.38	0.843
NCI-H1734	0.599	0.611	0.731	0.562	0.595	0.454	0.4	0.561	0.367	0.493	0.486	0.542	0.551	0.451	1.18	0.904	1.25	0.971
NCI-H1993	0.623	0.513	0.525	0.549	0.539	0.576	0.461	0.711	0.582	0.827	0.729	0.895	0.935	0.774	–	0.897	0.732	0.854
PC-3 [JPC-3]	0.814	0.77	0.709	0.783	0.735	1.04	0.946	1.05	0.947	0.775	0.724	0.731	0.694	0.733	0.476	0.421	0.456	0.476
NCI-H1915	0.669	0.612	0.665	0.637	0.677	0.317	0.29	0.301	0.252	0.95	0.934	0.9	0.955	0.897	0.933	0.933	1.06	0.882
NCI-H1666	0.913	0.881	0.836	0.923	0.854	0.915	0.789	0.767	0.731	0.43	0.418	0.567	0.558	0.531	0.733	0.652	0.815	0.662
HCC-366	0.836	1.05	0.812	0.979	1.01	0.556	0.481	0.749	0.5	0.157	0.208	0.205	0.143	0.164	1.09	1.05	1.12	1
SK-MES-1	0.654	0.552	0.667	0.603	0.68	0.343	0.358	0.427	0.301	0.356	0.32	0.427	0.373	0.321	0.48	0.456	0.472	0.46
NCI-H727	0.644	0.624	0.682	0.55	0.638	0.376	–	0.383	0.653	0.359	0.417	0.604	0.389	0.339	0.945	0.763	1.09	0.77
RERF-LC-KJ	0.614	0.607	0.6	0.516	0.54	0.91	0.814	1.04	0.694	0.537	0.563	0.644	0.617	0.495	0.904	0.862	1.07	0.705
NCI-H1623	0.495	0.428	0.46	0.383	0.399	–	0.524	0.562	0.54	–	–	–	–	–	–	–	–	–
Calu-6	–	–	–	–	–	–	–	–	–	0.898	0.958	0.966	0.743	0.829	1.16	1.01	1.12	1.08
LC-2-ad	0.839	0.867	0.9	0.837	0.633	0.693	0.514	0.701	0.514	0.477	0.494	0.513	0.572	0.548	0.851	0.873	1.08	0.957
CAL-12T	0.578	0.675	0.85	0.595	0.764	0.492	0.325	0.445	0.256	0.431	0.394	0.534	0.309	0.569	0.809	0.661	0.891	0.581
SK-LU-1	0.378	0.316	0.303	0.317	0.305	0.175	0.206	0.177	0.169	0.545	0.65	0.616	0.551	0.53	0.95	0.828	0.997	0.854

Cell Line	relative viability (Bromopyruvate + OSI-027; first compound 1 µM)	relative viability (Bromopyruvate + OSI-027; first compound 3.162 µM)	relative viability (Bromopyruvate + OSI-027; first compound 10 µM)	relative viability (Bromopyruvate + OSI-027; first compound 31.62 µM)	relative viability (Bromopyruvate + OSI-027; first compound 100 µM)	relative viability (Bicalutamide + Dasatinib; first compound 0.08 µM)	relative viability (Bicalutamide + Dasatinib; first compound 0.253 µM)	relative viability (Bicalutamide + Dasatinib; first compound 0.8 µM)	relative viability (Bicalutamide + Dasatinib; first compound 2.53 µM)	relative viability ([1]; first compound 1 µM)	relative viability ([1]; first compound 3.162 µM)	relative viability ([1]; first compound 10 µM)	relative viability ([1]; first compound 31.62 µM)	relative viability ([1]; first compound 100 µM)	relative viability (Bicalutamide + Lapatinib; first compound 0.08 µM)	relative viability (Bicalutamide + Lapatinib; first compound 0.253 µM)	relative viability (Bicalutamide + Lapatinib; first compound 0.8 µM)	relative viability (Bicalutamide + Lapatinib; first compound 2.53 µM)
NCI-H1650	0.642	0.592	0.669	0.757	0.464	0.34	0.245	0.381	0.301	0.545	0.532	0.567	0.651	0.512	0.905	0.655	1.09	0.74
BEN	0.307	0.296	0.293	0.277	0.298	0.355	0.316	0.393	0.38	0.64	0.505	0.63	0.552	0.508	0.674	0.589	0.984	0.858
EMC-BAC-2	0.384	0.382	0.397	0.397	0.405	0.347	0.287	0.33	0.298	0.472	0.557	0.572	0.539	0.622	0.85	0.735	0.912	0.833
LU99A	0.288	0.27	0.386	0.278	0.317	0.569	0.536	0.738	0.444	0.306	0.29	0.319	0.306	0.35	0.958	0.847	1.28	0.798
ABC-1	0.425	0.471	0.513	0.521	0.548	0.658	0.476	0.725	0.475	0.573	0.881	–	0.849	0.686	1.45	1.06	1.26	1.28
NCI-H2170	0.469	0.686	0.769	0.761	0.743	0.532	0.497	0.584	0.563	0.435	0.367	0.274	0.319	0.306	0.286	0.271	0.268	0.24
NCI-H1299	–	–	–	–	–	–	–	–	–	0.779	0.811	0.809	0.664	0.799	0.92	0.966	0.971	0.929
EBC-1	–	–	–	–	–	–	–	–	–	0.374	0.467	0.412	0.42	0.415	0.209	0.206	0.211	0.214
NCI-H441	0.709	0.693	0.76	0.609	0.571	0.646	0.63	0.664	0.534	0.428	0.543	0.498	0.466	0.571	–	–	–	–
NCI-H2342	0.552	0.603	0.542	0.545	0.497	0.324	0.276	0.299	0.306	–	–	–	–	–	–	–	–	–
ChaGo-K-1	0.715	0.521	0.629	0.578	0.493	0.613	0.557	0.561	0.542	0.978	0.766	0.581	0.685	0.622	–	–	–	–
HCC-44	0.616	0.634	0.483	0.596	0.483	–	–	–	–	0.697	0.625	0.693	0.66	0.671	1.05	0.987	1.12	1.05
A549	–	–	–	–	–	–	–	–	–	0.479	0.629	0.489	0.494	0.6	1.12	0.959	1.04	0.778
SW 900	0.589	0.543	0.558	0.562	0.526	0.856	0.445	0.658	0.509	–	–	–	–	–	–	–	–	–
IA-LM	–	–	–	–	–	–	–	–	–	0.336	0.357	0.328	0.28	0.434	0.969	0.958	1.02	0.711
NCI-H1703	–	–	–	–	–	–	–	–	–	0.238	0.226	0.256	0.271	0.269	1.16	1.03	1.18	0.643
LCLC-103H	0.408	0.487	0.528	0.451	0.494	0.401	0.428	0.52	0.425	0.508	0.596	0.684	0.524	0.592	–	–	–	–
NCI-H1648	0.263	0.263	0.251	0.25	0.259	–	–	–	–	–	–	–	–	–	–	–	–	–
